Data: US11077090B2, “Compounds and compositions and uses thereof” (Sunovion Pharmaceuticals Inc., priority 2016, dated 2021)

Legend:
Male C57Bl/6J mice [1] = assay: Marble burying test; assay type: in vivo; design: key: −: No reduction in number of marbles buried; +: Significant reduction in number of marbles buried (P < 0.05 vs vehicle)
Outline: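 Mice (n=10/group) dosed i.p. or p.o. with compound or water 30 min before a 30-min session in cages with twenty marbles; marbles at least two-thirds covered scored buried. Distance traveled tracked by overhead camera for locomotion; fewer marbles buried than vehicle indicates anxiolytic-like effect.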

Male C57Bl/6J mice [2] = assay: Prepulse inhibition of startle (PPI); assay type: in vivo; design: key: −: No change in PPI; +: Significant increase in PPI at one pre-pulse intensity (P < 0.05 vs vehicle); ++: Significant increase in PPI at two pre-pulse intensities (P < 0.05 vs vehicle); +++: Significant increase in PPI at three pre-pulse intensities (P < 0.05 vs vehicle)
From the text: The acoustic startle is an unconditioned reflex response to an external auditory stimulus. Prepulse inhibition of startle (PPI) refers to the reduction in the startle response caused by the presentation of a low-intensity auditory stimulus prior to the startle stimulus. The PPI paradigm is used for the study of schizophrenia and antipsychotic action due to the similarities between the results from human and rodent studies. PPI has been used as a tool for the assessment of deficiencies in sensory-motor gating observed in schizophrenia and to screen for potential antipsychotic drugs. Various psychotomimetic drugs, such as phencyclidine (PCP), can disrupt PPI. In mice, antipsychotic drugs such as haloperidol can increase PPI and clozapine can reverse the disruption of PPI induced by PCP.
Male C57Bl/6J mice from Jackson Laboratories were placed in the PPI chambers (Med Associates) for a 5 min session of white noise (70 dB) habituation. After the habituation period, the test session was initiated. The session started with a habituation block of 6 presentations of the startle stimulus alone, followed by 10 PPI blocks, each of which consisted of 6 different types of trials. Trial types were: ‘null’ (no stimuli), ‘startle’ (120 dB), ‘startle plus prepulse’ (4, 8, and 12 dB over background noise, i.e., 74, 78, or 82 dB) and ‘prepulse’ (82 dB). Trial types were presented in a random order within each block. Each trial started with a 50 ms stimulus-free period during which baseline movements were recorded. This was followed by a subsequent 20 ms period during which the prepulse stimulus was presented and responses to the prepulse measured. After a further 100 ms period, the startle stimulus was presented for 40 ms and responses recorded for 100 ms from startle onset. Responses were sampled every ms. The inter-trial interval was variable with an average of 15 s (range from 10 to 20 s). In ‘startle’ trials, the basic auditory startle response was measured. The basic startle response was calculated as the mean startle response of all ‘startle’ trials (i.e., excluding the first habituation block). In ‘startle plus prepulse’ trials, the degree of inhibition of the normal startle was calculated and expressed as a percentage of the basic startle response.
Mice were treated with vehicle or test compound orally by gavage, or haloperidol (1 mg/kg, i.p.), in 10 mL/kg injection volumes, 30 min prior to PPI test. The PPI enclosures were cleaned following each test. An increase in the percent PPI relative to the vehicle condition indicates an antipsychotic drug-like response.

Row | SMILES | Marbles Buried (Male C57Bl/6J mice [1]; 3 mg/kg (p.o.)) | Marbles Buried (Male C57Bl/6J mice [1]; 10 mg/kg (p.o.)) | Marbles Buried (Male C57Bl/6J mice [1]; 30 mg/kg (p.o.)) | Effect on Pre-Pulse Inhibition (PPI) (Male C57Bl/6J mice [2]; 10 mg/kg PO) | Effect on Pre-Pulse Inhibition (PPI) (Male C57Bl/6J mice [2]; 30 mg/kg PO) | Effect on Pre-Pulse Inhibition (PPI) (Male C57Bl/6J mice [2]; 3 mg/kg PO)
1 | N[C@H]1COCc2ccc(F)cc21 (single isomer, unassigned) [Example 114] | + | + | + | − | − | 
2 | Cc1ccc2c(c1)[C@H](N)COC2 [Example 123] |  | + | + | − | − | 
3 | N[C@@H]1COCc2ccc3ccccc3c21 (single isomer, unassigned) [Example 117] | + | + | + | − | +++ | 
4 | N[C@H]1COCc2ccc3ccccc3c21 (single isomer, unassigned) [Example 118] |  | + | + | − | − | 
5 | N[C@@H]1COCc2ccccc21 (single isomer, unassigned) [Example 111] | − | + | + | − | +++ | −
6 | Cc1ccc2c(c1)[C@@H](N)COC2 [Example 124] |  | + | + | − | − | 
